Broadly, the EC90 is the point of the concentration-response curve where the effect stands at 90%.

Consider 51 compounds from patent US9433621B2, “Substituted pyridine and pyrimidine derivatives and their use in treating viral infections” (Merck Sharp & Dohme Corp., priority 2010, dated 2016).

Like-named read-outs stand apart in the source and are kept apart here.

The subject of the experiment is HCV replicon. Briefly: Cell-Based HCV Replicon Assay. The conditions noted are these: Hepatitis C virus. The method in brief:
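Replicon cells, 5000/well, treated 3 days with 10 serial 2-fold dilutions (top 25 μM to 1 μM) in 0.5% DMSO, 10% FBS. Replicon RNA measured by multiplex Taqman RT-PCR (NS5B amplicon, GAPDH control); EC50/EC90 = concentration giving ΔCT of 1/3.2 over baseline from sigmoid fit.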
(In general: A replicon is a self-replicating genome or part of one, used to study replication in cells.)

Setting [1] is: 72 h, Table V, class codes, replicon cells, day 3, real time PCR, EC90 = concentration for ΔCT=3.2 over baseline, read-out: EC90 (uM) range.
Setting [2] is: HCV Replicon assay, EC90 range, Table VI, read-out: EC90.
Where [3] appears, read: 72 h, Table IV, replicon cells, day 3, real time PCR, EC90 = concentration for ΔCT=3.2 over baseline, read-out: EC90.

Consider `Cc1nc(NCC2CC2)nc(N[C@@H]2C[C@H](C(=O)Nc3ccncc3)[C@@H](O)[C@H]2O)c1-c1nc2c(C3CC3)nccc2s1` [Example 4957], for which the concentration for an effect of 90% (EC90) under setting [1] was less than 0.5 µM.

Take `Cc1nc(NCC2CC2)nc(N[C@H]2CCC[C@@H]2O)c1-c1nc2c(C)nccc2s1` [Example 5156]: under setting [2], the EC90 was less than 0.5 µM.

In the case of `Cc1nc(N)nc(N[C@@H]2C[C@H](C3(O)CCCC3)[C@@H](O)[C@H]2O)c1-c1nc2c(C)nccc2s1` [Example 5107], the EC90 under setting [2] was less than 0.5 µM.

Consider `COCCNc1nc(C)c(-c2nc3c(C)nccc3s2)c(N[C@H]2CCC[C@@H]2O)n1` [Example 5155], for which the EC90 under setting [2] is less than 0.5 µM.

`CO[C@@H]1[C@H](OC)[C@@H](C(C)(C)O)C[C@H]1Nc1nc(NC[C@@H](C)OC)nc(C)c1-c1nc2c(C)nccc2s1` [Example 5264]: the EC90 under setting [2] was less than 0.5 µM.

Consider `Cc1nccc2sc(-c3cnc(NCCSC(C)(C)C)nc3N[C@@H]3C[C@H](C(C)(C)O)[C@@H](O)[C@H]3O)nc12` [Example 4940], for which the EC90 under setting [1] is less than 0.5 µM.

Regarding `CCC(CNc1nc(C)c(-c2nc3c(C)nccc3s2)c(N[C@@H]2C[C@H](C(C)(C)O)[C@@H](O)[C@H]2O)n1)OC` (stereo partly drawn) [Example 5196], under setting [2], the EC90 was less than 0.5 µM.

In the case of `Cc1nc(N[C@H](C)c2ccc(OC(F)(F)F)cc2)nc(N[C@@H]2C[C@H](C(=O)Nc3ccncc3)[C@@H](O)[C@H]2O)c1-c1nc2c(C3CC3)nccc2s1` [Example 4955], under setting [1], the EC90 is less than 0.5 µM.

Regarding `COC[C@@H](C)Nc1nc(C)c(-c2nc3c(C)nccc3s2)c(N[C@@H]2C[C@H](C(C)(C)O)[C@@H](O)[C@H]2O)n1` [Example 3137], the EC90 under setting [3] stood at 0.118 µM.

On to `Cc1nc(N[C@H](C)c2ccc(F)cc2)nc(N[C@@H]2C[C@H](CO)[C@@H](O)[C@H]2O)c1-c1nc2c(C3CC3)nccc2s1` [Example 4932], for which the EC90 under setting [1] is less than 0.5 µM.

For `Cc1ccc(S(=O)(=O)C[C@H]2C[C@@H](Nc3nc(NC4CC4)nc(C)c3-c3nc4c(C)nccc4s3)[C@H](O)[C@@H]2O)cc1F` [Example 5003], under setting [2], the EC90 was less than 0.5 µM.

Regarding `CO[C@@H](CNc1nc(C)c(-c2nc3c(C)nccc3s2)c(N[C@@H]2C[C@H](C(C)(C)O)[C@@H](O)[C@H]2O)n1)C(F)(F)F` [Example 5232], the EC90 under setting [2] was less than 0.5 µM.

Regarding `CO[C@H](C)CNc1nc(C)c(-c2nc3cnc(C)cc3s2)c(N[C@@H]2C[C@H](CO)[C@@H](O)[C@H]2O)n1` [Example 4953], the EC90 under setting [1] is less than 0.5 µM.

As for `Cc1cc(S(=O)(=O)C[C@H]2C[C@@H](Nc3nc(NCCSC(C)(C)C)nc(C)c3-c3nc4c(C)nccc4s3)[C@H](O)[C@@H]2O)ccc1F` [Example 5006], the concentration for an effect of 90% (EC90) under setting [2] is less than 0.5 µM.

Take `Cc1nc(NCC2CC2)nc(N[C@@H]2C[C@H](C(=O)Nc3nccs3)[C@@H](O)[C@H]2O)c1-c1nc2c(C3CC3)nccc2s1` [Example 4927]: under setting [1], the EC90 was less than 0.5 µM.

As for `Cc1nc(N[C@H](C)c2ccc(OC(F)(F)F)cc2)nc(N[C@@H]2C[C@H](C(=O)Nc3ccccc3)[C@@H](O)[C@H]2O)c1-c1nc2c(C3CC3)nccc2s1` [Example 4951], the EC90 under setting [1] lay within 0.5 to 5 µM.

With `Cc1nc(NCCC2CC2)nc(N[C@@H]2C[C@H](C(F)F)[C@@H](O)[C@H]2O)c1-c1nc2c(C3CC3)nccc2s1` [Example 5192], the EC90 under setting [2] was less than 0.5 µM.

Turning to `Cc1nc(NCC(F)(F)C(F)(F)F)nc(N[C@@H]2C[C@H](CO)[C@@H](O)[C@H]2O)c1-c1nc2c(C3CC3)nccc2s1` [Example 5224], under setting [2], the EC90 is less than 0.5 µM.

Take `CO[C@H]1C[C@@H]([C@@H](C)Nc2nc(C)c(-c3nc4c(C5CC5)nccc4s3)c(N[C@@H]3C[C@H](CO)[C@@H](O)[C@H]3O)n2)C1` [Example 5299]: the EC90 under setting [2] was less than 0.5 µM.

For `CO[C@@H]1CCC[C@@H]1Nc1nc(C)c(-c2nc3c(C)nccc3s2)c(N[C@@H]2C[C@H](CO)[C@@H](O)[C@H]2O)n1` [Example 5143], the EC90 under setting [2] was less than 0.5 µM.

Regarding `CCO[C@H]1C[C@H](CNc2nc(C)c(-c3nc4c(C)nccc4s3)c(N[C@@H]3C[C@H](CC(C)(C)O)[C@@H](O)[C@H]3O)n2)C1` [Example 5306], under setting [2], the EC90 was less than 0.5 µM.

Consider `Cc1nc(NCC2CC2)nc(N[C@@H]2C[C@H](NC(=O)NC(C)(C)C)[C@@H](O)[C@H]2O)c1-c1nc2c(C3CC3)nccc2s1` [Example 5088], for which, under setting [2], the EC90 is less than 0.5 µM.

As for `Cc1nc(NCCS(N)(=O)=O)nc(N[C@@H]2C[C@H](C(C)(C)O)[C@@H](O)[C@H]2O)c1-c1nc2c(C)nccc2s1` [Example 5281], under setting [2], the EC90 lay within 0.5 to 5 µM.

Turning to `COC(C)(C)[C@H]1C[C@@H](Nc2nc(N)nc(C)c2-c2nc3c(C)nccc3s2)[C@H](O)[C@@H]1O` [Example 5279], the EC90 under setting [2] was less than 0.5 µM.

Regarding `CO[C@H]1C[C@H]([C@@H](C)Nc2nc(C)c(-c3nc4c(C5CC5)nccc4s3)c(N[C@@H]3C[C@H](CO)[C@@H](O)[C@H]3O)n2)C1` [Example 5303], the EC90 under setting [2] was less than 0.5 µM.

On to `Cc1cc2sc(-c3c(C)nc(NCC4CC4)nc3N[C@@H]3C[C@H](CO)[C@@H](O)[C@H]3O)nc2cn1` [Example 4909], for which the EC90 under setting [1] is less than 0.5 µM.

Regarding `Cc1nc(NCc2c(F)cccc2F)nc(N[C@@H]2C[C@H](CC#N)[C@@H](O)[C@H]2O)c1-c1nc2c(C3CC3)nccc2s1` [Example 3569], under setting [3], the EC90 came out at 0.016 µM.

With `Cc1nc(NCC(F)(F)C(F)(F)C(F)(F)F)nc(N[C@H]2C=C[C@@H](CO)C2)c1-c1nc2c(C)nccc2s1` [Example 5164], the EC90 under setting [2] is less than 0.5 µM.

As for `Cc1nc(N[C@H](C)c2c(F)c(F)c(C)c(F)c2F)nc(NC2(CO)CCCC2)c1-c1nc2c(C3CC3)nccc2s1` [Example 5128], under “HCV Replicon assay, EC90 given as numeric bound, Table VI, read-out: EC90”, the EC90 is greater than 1 µM.

Consider `COCC(O)(COC)[C@H]1C[C@@H](Nc2nc(NC[C@@H](C)OC)nc(C)c2-c2nc3c(C)nccc3s2)[C@H](O)[C@@H]1O` [Example 5245], for which, under setting [2], the EC90 was less than 0.5 µM.

On to `Cc1nc(N)nc(N[C@@H]2C[C@H](C(C)(C)O)[C@@H](O)[C@H]2O)c1-c1nc2c(N)nccc2s1` [Example 5029], for which the EC90 under setting [2] is less than 0.5 µM.

As for `CCc1nccc2sc(-c3c(C)nc(NC4CC4)nc3N[C@@H]3C[C@H](CS(=O)(=O)c4ccc(F)c(C)c4)[C@@H](O)[C@H]3O)nc12` [Example 5016], the EC90 under setting [2] was less than 0.5 µM.

For the compound `Cc1nc(NC2COC3(CCCCC3)C2)nc(N[C@@H]2C[C@H](C(C)(C)O)[C@@H](O)[C@H]2O)c1-c1nc2c(C)nccc2s1` (stereo partly drawn) [Example 5032], under setting [2], the EC90 was less than 0.5 µM.

In the case of `Cc1nc(NCC2CC2)nc(N[C@@H]2C[C@H](C(=O)N3CCOCC3)[C@@H](O)[C@H]2O)c1-c1nc2c(C3CC3)nccc2s1` [Example 4924], under setting [1], the EC90 is less than 0.5 µM.

Regarding `Cc1nc(NC2CC2)nc(N[C@@H]2C[C@H](CS(=O)(=O)c3ccc(F)c(F)c3)[C@@H](O)[C@H]2O)c1-c1nc2c(C)nccc2s1` [Example 5004], the EC90 under setting [2] is less than 0.5 µM.

Regarding `COC1(CNc2nc(C)c(-c3nc4c(C)nccc4s3)c(N[C@@H]3C[C@H](C(C)(C)O)[C@@H](O)[C@H]3O)n2)CC1` [Example 5257], under setting [2], the EC90 is less than 0.5 µM.

Regarding `Cc1nc(N[C@H](C)c2ccc(OC(F)(F)F)cc2)nc(N[C@@H]2C[C@H](CO)[C@@H](O)[C@H]2O)c1-c1nc2cnc(C3CC3)cc2s1` [Example 4944], the EC90 under setting [1] was less than 0.5 µM.

`Cc1nc(NCC(F)(F)C(F)(F)F)nc(N[C@@H]2C[C@H](CS(C)(=O)=O)[C@@H](O)[C@H]2O)c1-c1nc2c(C3CC3)nccc2s1` [Example 5223]: under setting [2], the EC90 is less than 0.5 µM.

Consider `Cc1cc(S(=O)(=O)C[C@H]2C[C@@H](Nc3nc(N)nc(C)c3-c3nc4c(C)nccc4s3)[C@H](O)[C@@H]2O)ccc1F` [Example 5020], for which the EC90 under setting [2] is less than 0.5 µM.

With `CCCNC(=O)N[C@H]1C[C@@H](Nc2nc(NCc3c(F)cccc3F)nc(C)c2-c2nc3c(C4CC4)nccc3s2)[C@H](O)[C@@H]1O` [Example 5085], the EC90 under setting [2] was less than 0.5 µM.

As to `CCOCCNc1nc(C)c(-c2nc3cnc(C)cc3s2)c(N[C@@H]2C[C@H](CO)[C@@H](O)[C@H]2O)n1` [Example 4911], the 90% effect concentration (EC90) under setting [1] was less than 0.5 µM.

As for `Cc1nc(NCC2CC2)nc(N[C@@H]2C[C@H](C(=O)Nc3ccccc3)[C@@H](O)[C@H]2O)c1-c1nc2c(C3CC3)nccc2s1` [Example 4950], the EC90 under setting [1] was less than 0.5 µM.

`Cc1nc(NCC(C)(C)C)nc(N[C@@H]2C[C@H](C(C)(C)S(C)(=O)=O)[C@@H](O)[C@H]2O)c1-c1nc2c(C3CC3)nccc2s1` [Example 5074]: the EC90 under setting [2] was less than 0.5 µM.

As to `CNS(=O)(=O)C[C@H]1C[C@@H](Nc2nc(NCC3CC3)nc(C)c2-c2nc3c(C)nc(C)cc3s2)[C@H](O)[C@@H]1O` [Example 5026], under setting [2], the EC90 was less than 0.5 µM.

As to `Cc1nc(NCC2CC2)nc(N[C@@H]2C[C@H](C(C)(C)S(=O)(=O)c3ccccc3)[C@@H](O)[C@H]2O)c1-c1nc2c(C)nccc2s1` [Example 5066], under setting [2], the EC90 was less than 0.5 µM.

On to `COCCNc1nc(C)c(-c2nc3c(C)nccc3s2)c(N[C@@H]2C[C@H]([C@@H](O)C(C)C)[C@@H](O)[C@H]2O)n1` [Example 5123], for which, under setting [2], the EC90 is less than 0.5 µM.

With `CO[C@@H]1CCC[C@@H]1Nc1nc(C)c(-c2nc3c(C)nccc3s2)c(N[C@@H]2C[C@H](C(C)(C)Cl)[C@@H](O)[C@H]2O)n1` [Example 5145], the 90% effect concentration (EC90) under setting [2] was less than 0.5 µM.

Turning to `CO[C@H]1CCC[C@@H]1Nc1nc(C)c(-c2nc3c(C4CC4)nccc3s2)c(N[C@@H]2C[C@H](CO)[C@@H](O)[C@H]2O)n1` [Example 5147], the EC90 under setting [2] was less than 0.5 µM.

Take `Cc1cc(S(=O)(=O)C[C@H]2C[C@@H](Nc3nc(NCC(C)(C)C)nc(C)c3-c3nc4c(C)nccc4s3)[C@H](O)[C@@H]2O)ccc1F` [Example 5010]: under setting [2], the EC90 is less than 0.5 µM.

Regarding `CO[C@@H](C)CNc1nc(C)c(-c2nc3c(C)nccc3s2)c(N[C@@H]2C[C@H](C(C)(C)O)[C@@H](O)[C@H]2O)n1` [Example 3031], under setting [3], the EC90 was 0.104 µM.

Turning to `Cc1nc(NCC2CC(C)C2)nc(N[C@@H]2C[C@H](CO)[C@@H](O)[C@H]2O)c1-c1nc2c(C3CC3)nccc2s1` (stereo partly drawn) [Example 5294], the EC90 under setting [2] is less than 0.5 µM.
